We go through 44 compounds from US20180360782A1, “METHOD OF MODULATING RIBONUCLEOTIDE REDUCTASE” (CASE WESTERN RESERVE UNIVERSITY, priority 2015, published 2018).

Assay [1] concerns MDA-MB-231 and HCT-116 cell lines. Briefly: Growth inhibition screening assay (In Cell IC50). Format: cell-based, human. Conditions: 3 days with compound; for IC50: Homo sapiens, 72 h. The protocol:
(§1) Cell were maintained in standard tissue culture media (RPMI1640, +10% fetal bovine serum, plus antibiotic) and grown in a standard humidified 5% CO2 incubator at 37° C. Cells were regularly tested using the MycoAlert detection kit (Lonza Biologics) and shown to be mycoplasma-free. Initial compound screening was performed using both MDA-MB-23 land HCT-116 cell lines. For moderate throughput screening (up to 120 drugs per experiment), cells were seeded into 96 well plates and allowed to attach overnight. The following day media was removed and replaced with fresh compound containing media. Each compound was tested against both cell lines at 3 concentrations; 1 μM, 10 μM and 50 μM, in duplicate. Cells were incubated with compound containing media for three days in a standard 5% CO2 tissue culture incubator. Cell growth was assessed after 3 days using the DNA dye binding assay, as originally described by LaBarca and Paigen. Relative growth was independently calculated for each cell line, based on DNA content from corresponding cells grown in control media plus diluent (DMSO). Additional growth inhibition experiments utilized either the DNA binding assay or the Promega CellTiter 96® (MTT reduction) assay, with similar results. For detailed growth inhibition assays, cells (1500-2500 depending on the growth characteristics of the cell line) were seeded in standard 96 well tissue culture plates and allowed to attach overnight. The following day media was removed and replaced with drug containing media. Each dose group consisted of 5 replicate wells, and results are reported a Relative Growth, calculated as DNA or MTT reduction per well, divided by the signal from untreated cells, both harvested 3 days after drug administration.

Assay [2] concerns select cancer cell lines. Briefly: Cellular IC50 of NSAAH library (Table 3). It counts as cell-based. The protocol: as §1
Assay [3] has as its target T1, hRR (hRRM1 and hRRM2) (Homo sapiens, UniProt P23921).
T1 sequence (P23921 1-792): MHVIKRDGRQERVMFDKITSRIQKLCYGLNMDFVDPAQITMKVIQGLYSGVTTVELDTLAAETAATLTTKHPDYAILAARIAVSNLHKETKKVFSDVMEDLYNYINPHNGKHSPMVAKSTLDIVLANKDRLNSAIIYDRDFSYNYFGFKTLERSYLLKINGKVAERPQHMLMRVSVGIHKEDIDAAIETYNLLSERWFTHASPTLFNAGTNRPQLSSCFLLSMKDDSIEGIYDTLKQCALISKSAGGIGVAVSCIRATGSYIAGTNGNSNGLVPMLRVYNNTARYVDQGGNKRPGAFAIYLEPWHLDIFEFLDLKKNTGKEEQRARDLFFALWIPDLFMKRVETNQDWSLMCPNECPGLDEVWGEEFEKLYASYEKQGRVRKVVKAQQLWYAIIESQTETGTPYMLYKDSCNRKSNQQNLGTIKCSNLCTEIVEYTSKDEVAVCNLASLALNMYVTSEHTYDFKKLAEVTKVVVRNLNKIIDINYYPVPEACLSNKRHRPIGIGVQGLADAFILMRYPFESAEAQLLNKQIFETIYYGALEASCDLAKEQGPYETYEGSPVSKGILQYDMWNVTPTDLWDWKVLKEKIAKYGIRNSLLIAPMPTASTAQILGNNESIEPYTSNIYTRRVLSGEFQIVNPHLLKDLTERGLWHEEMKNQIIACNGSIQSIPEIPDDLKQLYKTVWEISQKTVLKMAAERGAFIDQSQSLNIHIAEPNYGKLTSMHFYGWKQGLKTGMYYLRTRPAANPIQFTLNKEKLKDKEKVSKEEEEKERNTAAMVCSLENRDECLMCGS
T1 sequence (P31350 1-389 partner): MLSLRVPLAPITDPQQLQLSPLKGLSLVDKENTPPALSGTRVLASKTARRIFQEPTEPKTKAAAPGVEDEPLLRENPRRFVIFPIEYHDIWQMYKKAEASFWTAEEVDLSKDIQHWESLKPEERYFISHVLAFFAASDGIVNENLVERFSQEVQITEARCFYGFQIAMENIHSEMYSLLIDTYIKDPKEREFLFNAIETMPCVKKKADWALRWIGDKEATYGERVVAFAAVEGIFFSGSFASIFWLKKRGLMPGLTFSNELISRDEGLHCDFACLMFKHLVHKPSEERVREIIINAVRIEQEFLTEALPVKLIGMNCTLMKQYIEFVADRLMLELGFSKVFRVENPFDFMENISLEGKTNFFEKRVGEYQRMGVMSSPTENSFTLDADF
The note with it: read-out: Cell-Free IC50; NSAAH library against hRR.
Protocol: (§2) The buffer solution (50 mM HEPES at pH 7.6, 5% (v/v) glycerol, 0.1M KCl) and the hRRM2 protein in the buffer solution were prepared under deoxygenated conditions. Both solutions were taken into the glove box and FeNH4SO4 was dissolved in the buffer solution. 5 equivalents of Fe (II) per hRRM2 dimer from FeNH4SO4 (determined by Ferrozine assay) was added to the protein solution and incubated at 4° C. in the glove box. Upon removal of the protein from the glove box, freshly prepared O2-saturated buffer solution (50 mM HEPES at pH 7.6, 5% (v/v) glycerol, 0.1M KCl) was added. Excess iron was removed by S200 10/300 size exclusion chromatography. […] The reaction mixture was pre-incubated for 3 min at 37° C., and 30 μL aliquots were sampled at fixed time intervals after initiating the reaction. Reactions were quenched by immersion in a boiling water bath, cooling, and treatment with alkaline phosphatase. The product ^14-dADP that formed during the reaction was separated from substrate-ADP using boronate affinity chromatography. ^14-dADP was quantified by liquid scintillation counting using a Beckman LS6500 liquid scintillation counter.
(§3) Briefly, boronate chromatography was used to separate the product.

Assay [4] concerns the target T1, hRR (hRRM1 and hRRM2). Kind of assay: biochemical.
Protocol: as §2, §3
Assay [5] deals with MDA-MB-231, HCT116, A549 and Panc1 cell lines. Briefly: Detailed growth inhibition studies, median effect dose. Format: cell-based. The note with it: Homo sapiens. The protocol: Cell were maintained in standard tissue culture media (RPMI1640, +10% fetal bovine serum, plus antibiotic) and grown in a standard humidified 5% CO2 incubator at 37° C. […] For moderate throughput screening (up to 120 drugs per experiment), cells were seeded into 96 well plates and allowed to attach overnight. The following day media was removed and replaced with fresh compound containing media. Each compound was tested against both cell lines at 3 concentrations; 1 μM, 10 μM and 50 μM, in duplicate. Cells were incubated with compound containing media for three days in a standard 5% CO2 tissue culture incubator. Cell growth was assessed after 3 days using the DNA dye binding assay, as originally described by LaBarca and Paigen. Relative growth was independently calculated for each cell line, based on DNA content from corresponding cells grown in control media plus diluent (DMSO). […] The following day media was removed and replaced with drug containing media.
Over 190 compounds were screened for their ability to inhibit growth and/or induce cell death in established cancer cell lines.

Structures are written as SMILES. Read-outs that look alike come from different tables or passages of the source. Square brackets hold non-standard residues; d marks the D form. Peptide text beside a SMILES is read from it. ξ: configuration not given here. ξY = NC(Cc1ccc(O)cc1)C(=O)O; Sar = CNCC(=O)O A value given as a limit tells only on which side of the number the result lay.

With `CCOC(=O)C(NC(=O)CN[C@H]1CCCc2sccc21)C(=O)OCC`, the “In Cell IC50 (μM)” value in assay [1] is given as “ne^b”.
Still for that read-out and setting: the result for `CCCCCCCCCCCCCCNC(=O)[C@@H](N)CCN` reads “ne”; that for `CCC(C)(C)c1ccc(OCCCCNC(=O)c2cc(Oc3ccc([N+](=O)[O-])cc3)c3ccccc3c2O)c(C(C)(C)CC)c1`, “ne^b”; that for `CC(NCCCCCO)c1cc(OCc2ccccc2)cc(OCc2ccccc2)c1` (stereo not shown), “non-toxic”.
`CCOC(=O)C[C@@H](CC(=O)NCCN[C@H](C)c1ccc(O)c(C(=O)OC)c1)OC(C)=O`: in assay [1], the “In Cell IC50 (μM)” value is listed as “ne^b”.
On to `CCCCCCCCCCCCCCCC(=O)N[C@@H](CCCCN)C(=O)N[C@@H](CCCCN)C(=O)OC`, for which the “In Cell IC50 (μM)” value in assay [1] is “ne”.
Turning to `O=C(N/N=C/c1cc2ccccc2cc1O)c1ccccc1O`, the IC50 in assay [2] is above 10 µM.
The same measure, in the same setting: the result for `O=C(N/N=C/c1ccc2cc(O)ccc2c1)c1ccccc1O` reads above 10 µM.
With `Nc1ccccc1C(=O)N/N=C/c1c(O)ccc2ccccc12`, the “Cellular IC50” value in assay [2] is given as “No cytotoxicity”.
For the compound `O=C(N/N=C/c1c(O)ccc2ccccc12)c1cccnc1`, the “Cellular IC50” value in assay [2] is given as “No cytotoxicity”. Moreover, in assay [3], the IC50 was 5.3 µM.
Take `COc1cc(C(=O)N/N=C/c2c(O)ccc3ccccc23)ccc1O`: the “Cellular IC50” value in assay [2] is “No cytotoxicity”. Besides, the IC50 in assay [4] was 687 µM.
For the compound `CN(C)c1ccc(C(=O)N/N=C/c2c(O)ccc3ccccc23)cc1`, in assay [2], the IC50 was above 10 µM.
`COc1ccc(C(=O)N/N=C/c2c(O)ccc3ccccc23)cc1`: the results for the IC50 in assay [2] and in assay [4] were above 10 µM and 94.1 µM, respectively.
With `Cc1ccc(C(=O)N/N=C/c2c(O)ccc3ccccc23)cc1`, the “Cellular IC50” value in assay [2] is “No cytotoxicity”. This compound also registered an IC50 in assay [4] of 86.8 µM.
With `Oc1ccc2ccccc2c1/C=N/NCc1ccccc1`, in assay [2], the IC50 is above 10 µM.
Same read-out and setting: the result for `Oc1ccc2ccccc2c1/C=N/Nc1ccc(Br)cc1` reads above 10 µM.
`O=[N+]([O-])c1ccc(N/N=C/c2c(O)ccc3ccccc23)cc1` showed an IC50 in assay [2] above 10 µM.
Turning to `O=C(N/N=C/c1c[nH]c2ccc(O)cc12)c1ccccc1O`, in assay [2], the IC50 is above 10 µM.
In the case of `O=S(=O)(N/N=C/c1c(O)ccc2ccccc12)c1ccccc1`, the figures for the IC50 in assay [2] and in assay [3] were above 10 µM and 122 µM, respectively.
As for `O=S(=O)(Cc1ccccc1)N/N=C/c1c(O)ccc2ccccc12`, in assay [2], the “Cellular IC50” value is “No cytotoxicity”.
Consider `O=[N+]([O-])c1ccc(S(=O)(=O)N/N=C/c2c(O)ccc3ccccc23)cc1`, for which the “Cellular IC50” value in assay [2] is recorded as “No cytotoxicity”.
On to `CC1(C)C2CC(=O)C1C(CS(=O)(=O)N/N=C/c1c(O)ccc3ccccc13)C2` (stereo not shown), for which, in assay [2], the “Cellular IC50” value is reported as “No cytotoxicity”. Further, the IC50 in assay [3] is 298 µM.
For `Cc1ccc(S(=O)(=O)N/N=C/c2c(O)ccc3ccccc23)cc1`, the “Cellular IC50” value in assay [2] was “No cytotoxicity”. Also, the IC50 in assay [3] was 6.8 µM.
The compound `Nc1ccc(C(=O)N/N=C/c2c(O)ccc3ccccc23)cc1Cl` had an IC50 in assay [2] above 10 µM.
Turning to `O=C(N/N=C/c1c(O)ccc2ccccc12)c1ccc([N+](=O)[O-])c(Cl)c1`, in assay [2], the “Cellular IC50” value is listed as “No cytotoxicity”.
For the compound `COc1ccc(Br)cc1C(=O)N/N=C/c1c(O)ccc2ccccc12`, the IC50 in assay [2] is above 1 µM.
Same read-out and setting: the same measure for `COc1cc(Br)ccc1C(=O)N/N=C/c1c(O)ccc2ccccc12`: above 10 µM.
On to `O=C(N/N=C/c1c(O)ccc2ccccc12)OCc1ccccc1`, for which the “Cellular IC50” value in assay [2] is recorded as “No cytotoxicity”.
The same measure, in the same setting: the result for `O=C(N/N=C/c1c[nH]c2ccc([N+](=O)[O-])cc12)c1ccccc1O` reads “No cytotoxicity”; that for `Cc1cccc2c(/C=N/NC(=O)c3ccccc3O)c[nH]c12`, “No cytotoxicity”.
Consider `O=C(c1ccccc1O)n1cc(-c2c(O)ccc3ccccc23)nn1`, for which the “Cellular IC50” value in assay [2] is “No cytotoxicity”. Further, the IC50 in assay [4] is 8.1 µM.
As to `Cc1c(-n2cc(-c3ccc4cc(O)ccc4c3)nn2)c(=O)n(-c2ccccc2)n1C`, in assay [2], the “Cellular IC50” value was “No cytotoxicity”. The IC50 in assay [4] was 31.3 µM.
The like results for `OCc1ccccc1-n1cc(-c2ccc3cc(O)ccc3c2)nn1` were, in that order, “No cytotoxicity” and 607 µM.
Take `O=c1nc(-n2cc(-c3ccc4cc(O)ccc4c3)nn2)cc[nH]1`: the “Cellular IC50” value in assay [2] was “No cytotoxicity”. The same compound showed an IC50 in assay [4] of 269 µM.
Consider `Oc1ccc(CCn2cc(-c3ccc4cc(O)ccc4c3)nn2)cc1`, for which the “Cellular IC50” value in assay [2] was “No cytotoxicity”.
Take `Oc1ccc2cc(-c3cn(-c4ccc5[nH]ccc5c4)nn3)ccc2c1`: the “Cellular IC50” value in assay [2] was “No cytotoxicity”.
As to `O=c1oc(-c2ccccc2-c2ccccc2-c2nc3ccccc3c(=O)o2)nc2ccccc12`, in assay [2], the “Cellular IC50” value is reported as “No cytotoxicity”. The compound further gave an IC50 in assay [4] of 40.2 µM.
As for `O=C1C=Cc2cc(C3=NC4C=CC=CC4S(=O)(=O)N3)c(=O)oc2C1` (stereo not shown), the “Cellular IC50” value in assay [2] was “No cytotoxicity”. This compound came in with an IC50 in assay [4] of 13.2 µM.
`O=C(O)c1ccccc1-c1ccccc1C(=O)c1ccc2ccccc2n1`: the “Cellular IC50” value in assay [2] is on record as “No cytotoxicity”. In assay [4], this compound registered an IC50 of 3.8 µM.
The like results for `O=C(Nc1ccccc1C(=O)O)c1ccc2ccccc2n1` were, in that order, “No cytotoxicity” and 15.3 µM.
As a reminder, the inhibition is the change of the read-out against control, counted positive when it falls. As to `OC(COc1ccc(OCC(O)CN2CCN(C3c4ccccc4-c4ccccc43)CC2)cc1)CN1CCN(C2c3ccccc3-c3ccccc32)CC1` (stereo not shown) [compound 2], the IC50 in assay [1] fell in the range of 3 to 8 µM; in assay [5] (72 h, read-out: median effect dose (Dm), growth inhibitory activity), 1 to 10 µM. Also, in assay [5] (read-out: growth inhibition), the inhibition at 10 µM is around 100%.
With `CC(C)(NC(=O)CN1C(=O)c2ccccc2C1=O)C(=O)NCCCC[C@H](NC(=O)CC(O)(C(F)(F)F)C(F)(F)F)C(=O)O` [compound 6], the IC50 in assay [1] was 30 µM.
With `CCCOc1ccc(C(=O)OCCN(CC)CC)cc1NS(=O)(=O)/C=C/c1ccccc1` [compound 8], the “In Cell IC50 (μM)” value in assay [1] is listed as “ne^b”.
On the same count and under the same terms, the same measure for `CNCC(=O)N[C@@H](CCCNC(=N)N)C(=O)N[C@H](C(=O)NC(Cc1ccc(O)cc1)C(=O)N[C@H](C(=O)N[C@@H](Cc1cnc[nH]1)C(=O)O)C(C)C)C(C)C` (stereo partly shown) [compound 9] (H-[Sar]RV[ξY]VH-OH): “non-toxic”.
